In patent US20230102379A1 (priority 2020, published 2023):
Entries after “also recorded” stand apart in the source; their conditions may differ. Read-outs that look alike come from different tables or passages of the source.

Experiments:
Xylella fastidiosa = type: cell-based; conditions: for diameter of inhibition: highest dose tested (2.12 μmol)
L. crescens [1] = type: cell-based, Liberibacter crescens
Xf = conditions: cited from earlier work
E. coli [2] = conditions: cited from earlier work
Micrococcus luteus = conditions: cited from earlier work
Vibrio harveyi = conditions: cited from earlier work
MRSA = conditions: cited from earlier work
Bacillus megaterium = conditions: agar diffusion; cited from earlier work
E. coli [3] = conditions: agar diffusion; cited from earlier work
[4] = tested on: transcriptional accessory protein; conditions: cited from earlier work
L. crescens [5] = conditions: cited from earlier work

For `C/C=C/C(=O)n1nnc2ccccc21`, which melting point is on record?
The melting point was 91 to 93 °C.

Which “inhibition of Xf (in words)” value (Xylella fastidiosa) does the source give for `C/C=C/c1cc2c(c(=O)o1)C(=O)CC(C)O2` (racemic) [Compound 2, (E)-2-methyl-7-(prop-1-en-1-yl)-2,3-dihydropyrano[4,3-b]pyran-4,5-dione] here?
The value was “consistent, somewhat linear relationship between compound dose and antibacterial response; also recorded: more potent than 1; also recorded: potent inhibitor”.

What about the “inhibition of Xf (in words)” value (Xylella fastidiosa; listed as deoxyradicinin) of the same compound?
The value was “low micromolar inhibitor”.

What about the “inhibition of L. crescens (in words)” value (L. crescens [1]) of the same compound?
The value was “notable linear relationships between compound dose and antibacterial response; also recorded: most potent inhibitor of L. crescens tested; also recorded: potently inhibit; also recorded: potent inhibitor”.

What about the “inhibition of L. crescens (in words)” value (L. crescens [1]; dose 1.06 μmol and higher) of the same compound?
Its value is “complete inhibition”.

And the “inhibition of L. crescens (in words)” value (L. crescens [1]; listed as deoxyradicinin)?
The value was “nanomolar inhibitor”.

And the diameter of inhibition (L. crescens [1]; lowest tested dose of 0.053 μmol)?
Its diameter of inhibition is 4.0 cm.

Which results are given for `CCCc1cc2c(c(=O)o1)C(=O)CC(C)O2` (racemic) [Compound 3, 2-methyl-7-propyl-2,3-dihydropyrano[4,3-b]pyran-4,5-dione]?
dose at which activity is shown (Xylella fastidiosa): greater than 0.53 μmol; diameter of inhibition (Xylella fastidiosa): 3.4 cm; inhibition of L. crescens (in words) (L. crescens [1]): notable linear relationships between compound dose and antibacterial response

With `C/C=C/c1cc2c(c(=O)o1)C(=O)C[C@H](C)O2` (single isomer, unassigned) [(−)-2, (−)-deoxyradicinin] as the compound, how does the “inhibition of L. crescens (in words)” value (L. crescens [1]) read?
The value was “potently inhibit”.

With `C/C=C/c1cc2c(c(=O)o1)C(=O)CC(C)O2` (single isomer, unassigned; (+)) [(+)-2, (+)-deoxyradicinin] as the compound, how does the “inhibition of L. crescens (in words)” value (L. crescens [1]) read?
The value was “potently inhibit”.

Which “inhibition of Xf (in words)” value (Xylella fastidiosa) does the source give for `C/C=C/c1cc2c(c(=O)o1)C(=O)[C@@H](O)[C@H](C)O2` [Compound 1, radicinin] here?
The value was “consistent, somewhat linear relationship between compound dose and antibacterial response”.

What about the diameter of inhibition (Xylella fastidiosa) of the same compound?
The diameter of inhibition was 10 cm.

What about the “inhibition of L. crescens (in words)” value (L. crescens [1]) of the same compound?
The value was “notable linear relationships between compound dose and antibacterial response”.

What about the “inhibition of Xf in vitro (in words)” value (Xf) of the same compound?
Its value is “inhibitor of Xf in vitro”.

For `C/C=C/C(=O)c1c(O)cc(/C=C/C)oc1=O` [Compound 4, 3-((E)-but-2-enoyl)-4-hydroxy-6-((E)-prop-1-en-1-yl)-2H-pyran-2-one], which “inhibition of L. crescens (in words)” value (L. crescens [1]) is on record?
Its value is “notable linear relationships between compound dose and antibacterial response”.

With `C/C=C/c1cc(O)cc(=O)o1` [Compound 5, (E)-4-hydroxy-6-(prop-1-en-1-yl)-2H-pyran-2-one] as the compound, how does the “inhibition of Xf (in words)” value (Xylella fastidiosa) read?
Its value is “inactive”.

What about the diameter of inhibition (L. crescens [1]; highest dose) of the same compound?
Its diameter of inhibition is 2.6 cm.

What about the diameter of inhibition (L. crescens [1]; lower doses) of the same compound?
The diameter of inhibition was 0.2 cm.

What about the melting point of the same compound?
Its melting point is 183 to 185 °C.

With `O=C1CCC(c2ccc(O)c3c2C(=O)C2OC2C3O)c2cccc(O)c21` (stereo not shown) [Compound 21, cladosporol A] as the compound, how does the “antibacterial activity (in words)” value (E. coli [2]) read?
The value was “modest antibacterial activity”.

What about the “antibacterial activity (in words)” value (Micrococcus luteus) of the same compound?
Its value is “modest antibacterial activity”.

And the “antibacterial activity (in words)” value (Vibrio harveyi)?
The value was “modest antibacterial activity”.

What about the “antibacterial activity (in words)” value (MRSA) of the same compound?
The value was “modest antibacterial activity”.

Which results are given for `CC(CCCCCCCCCCCCCCO[C@@H]1O[C@H](CO)[C@@H](O)[C@H](O)[C@@H]1O)C(O)=C1C(=O)C(C)N(C)C1=O` (stereo partly shown) [Compound 24, epicoccamide A]?
antibacterial activity (in words) (E. coli [2]): modest antibacterial activity; antibacterial activity (in words) (Micrococcus luteus): modest antibacterial activity; antibacterial activity (in words) (Vibrio harveyi): modest antibacterial activity; antibacterial activity (in words) (MRSA): modest antibacterial activity; antibiotic activity (in words) (Bacillus megaterium): no detectable antibiotic activity; antibiotic activity (in words) (E. coli [3]): no detectable antibiotic activity

With `Cc1c(Cl)cccc1Nc1ccccc1C(=O)O` [Tolfenamic acid] as the compound, how does the “inhibition of transcriptional accessory protein (in words)” value [4] read?
Its value is “inhibits a transcriptional accessory protein”.

With `CO/N=C(\C(=O)N[C@@H]1C(=O)N2C(C(=O)O)=C(COC(C)=O)CS[C@H]12)c1csc(N)n1` [cefotaxime] as the compound, how does the “concentration providing nearly complete inhibition of L. crescens” value (L. crescens [5]) read?
Its value is 0.7 µM.

With `CC1(C)S[C@@H]2[C@H](NC(=O)COc3ccccc3)C(=O)N2[C@H]1C(=O)O` [penicillin V] as the compound, how does the “concentration providing nearly complete inhibition of L. crescens” value (L. crescens [5]) read?
Its value is 0.1 µM.
